pIC50: −log10 of the molar value.
Columns and labels:
cMET = cMET (Homo sapiens, UniProt P08581); experiment: Inhibitory activity against MET (cMET), TR-FRET kinase assay; format: biochemical; conditions: TR-FRET enzyme assay
Protocol: In addition, in order to measure the enzyme activity inhibition for cMET, the evaluation was performed in the same manner as the enzyme activity inhibition measurement experiment for RON.
(§1) Specifically, the compound was prepared to a concentration of 1 mM in 100% DMSO and was diluted 10 times in a stepwise manner through 3-fold dilution. The compound (2 ul) diluted in a stepwise manner was added to a 96-well-plate containing 48 ul of a 1×kinase reaction buffer (50 mM HEPES (pH 7.4), 0.05% BSA, 0.005% Tween-20, 1 mM DTT, 0.5 mM MnCl2, 20 mM MgCl2).
The cMET protein was diluted to a concentration of 263 nM in a cMET storage buffer (50 mM Tris-HCl (pH 7.5), 150 mM NaCl, 0.05% Brij35, 1 mM DTT, 10% Glycerol), and then diluted again to a concentration of 2 nM in a 1×kinase reaction buffer. As a substrate cocktail, a MET-specific substrate mixed solution (5 uM TK peptide, 10 mM ATP) was prepared at a concentration 2 times the final reaction concentration.
(§2) Thereafter, a 384-well-plate was prepared, and 2.5 μl of each of the diluted compounds of Examples was added to a corresponding well of experimental group wells, and 2.5 μl of a 4% DMSO solution was dispensed into high control wells and low control wells.
(§3) Thereafter, 2.5 μL of 2 nM cMET was dispensed into each of the high control wells and the experimental group wells, and 2.5 μL of the 1× kinase reaction buffer was added to the low control wells, and all the wells were centrifuged at room temperature for 40 seconds at 1,000 RPM, and then incubated at room temperature for 20-30 minutes. Then, 5 μL of the substrate cocktail (2×) was dispensed into each well, and all the wells were centrifuged at room temperature for 40 seconds at 1,000 RPM, and then incubated at room temperature for 60 minutes. Thereafter, 5 μL of 90 mM EDTA was added to each well to terminate the reaction, and all the wells were then incubated again at room temperature for 5 minutes. Thereafter, 5 μL of a 4×phosphotyrosine antibody (Perkin Elmer) containing europium was added to each well, and all the wells were then incubated at room temperature for 60 minutes. After the incubation, the 384-well-plate was read with the Vison plate reader. In this case, the excitation wavelength was 340 nm, and the emission wavelength was 620 nm and 665 nm. The pe50 value of each compound of Examples was derived using the GraphPd Prism7 program.

RON = RON (Homo sapiens, UniProt Q04912); experiment: Inhibitory activity against RON, TR-FRET kinase assay; format: biochemical; conditions: TR-FRET enzyme assay
Chain of RON (Q04912 25-1400, species assumed): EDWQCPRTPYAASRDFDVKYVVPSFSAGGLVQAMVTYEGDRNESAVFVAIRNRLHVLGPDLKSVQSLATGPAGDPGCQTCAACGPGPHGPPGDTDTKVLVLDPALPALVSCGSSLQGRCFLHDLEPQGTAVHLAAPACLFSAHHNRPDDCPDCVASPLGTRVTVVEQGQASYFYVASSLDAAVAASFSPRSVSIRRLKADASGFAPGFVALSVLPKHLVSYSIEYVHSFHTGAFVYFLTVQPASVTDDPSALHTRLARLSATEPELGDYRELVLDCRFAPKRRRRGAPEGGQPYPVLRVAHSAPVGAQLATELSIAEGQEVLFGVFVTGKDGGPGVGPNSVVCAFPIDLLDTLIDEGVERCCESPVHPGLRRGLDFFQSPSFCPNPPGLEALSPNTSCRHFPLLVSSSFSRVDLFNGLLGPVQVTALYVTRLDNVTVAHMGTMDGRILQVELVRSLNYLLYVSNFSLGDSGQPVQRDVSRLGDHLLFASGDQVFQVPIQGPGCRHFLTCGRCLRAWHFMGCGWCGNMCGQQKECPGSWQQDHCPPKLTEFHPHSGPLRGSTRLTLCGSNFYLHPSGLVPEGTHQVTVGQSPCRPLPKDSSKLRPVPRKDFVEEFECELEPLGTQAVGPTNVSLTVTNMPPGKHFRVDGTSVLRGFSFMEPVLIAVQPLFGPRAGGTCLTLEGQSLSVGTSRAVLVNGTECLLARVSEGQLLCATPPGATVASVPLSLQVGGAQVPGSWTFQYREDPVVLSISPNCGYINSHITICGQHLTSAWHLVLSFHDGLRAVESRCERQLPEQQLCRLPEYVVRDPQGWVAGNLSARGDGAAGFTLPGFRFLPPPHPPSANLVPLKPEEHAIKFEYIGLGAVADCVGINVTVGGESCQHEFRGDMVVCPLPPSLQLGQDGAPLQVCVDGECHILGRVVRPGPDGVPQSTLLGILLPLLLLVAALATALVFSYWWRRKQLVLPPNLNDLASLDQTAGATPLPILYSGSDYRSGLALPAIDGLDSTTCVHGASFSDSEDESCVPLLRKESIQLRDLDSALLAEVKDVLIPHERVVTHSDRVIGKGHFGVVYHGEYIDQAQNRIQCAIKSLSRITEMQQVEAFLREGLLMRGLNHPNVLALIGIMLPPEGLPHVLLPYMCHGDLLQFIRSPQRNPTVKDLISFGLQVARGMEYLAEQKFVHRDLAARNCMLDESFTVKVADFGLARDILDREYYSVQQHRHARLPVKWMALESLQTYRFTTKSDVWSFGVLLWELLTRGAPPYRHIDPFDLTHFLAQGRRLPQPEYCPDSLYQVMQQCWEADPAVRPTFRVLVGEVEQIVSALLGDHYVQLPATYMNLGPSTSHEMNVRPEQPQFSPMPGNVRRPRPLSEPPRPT
Protocol: In order to measure the inhibitory activity of each of the compounds of Examples against RON, the IC50 of each of the compounds was measured using Time-resolved fluorescence energy transfer (TR-FRET).
as §1, with “a 1× kinase” for “a 1×kinase”, “7.4), 0.01%” for “7.4), 0.05% BSA, 0.005%”, “Tween-20, 5” for “Tween-20, 1”, “mM Na3VO4, 2 mM EGTA, 10” for “mM MnCl2, 20”
The RON protein was diluted to a concentration of 49.3 nM in a RON storage buffer (50 mM Tris-HCl (pH 7.5), 150 mM NaCl, 0.5 mM EDTA, 0.02% Triton X-100), and then diluted again to a concentration of 0.4 nM in a 1×kinase reaction buffer. As a substrate cocktail, a RON-specific substrate mixed solution (40 uM ULight-labeled Poly GT, 100 nM ATP) was prepared at a concentration 2 times the final reaction concentration.
as §2
as §3, with “of 0.4” for “of 2”, “nM RON” for “nM cMET”, “of 30” for “of 90”, “The IC50” for “The pe50”

Chain of cMET (P08581 25-1390): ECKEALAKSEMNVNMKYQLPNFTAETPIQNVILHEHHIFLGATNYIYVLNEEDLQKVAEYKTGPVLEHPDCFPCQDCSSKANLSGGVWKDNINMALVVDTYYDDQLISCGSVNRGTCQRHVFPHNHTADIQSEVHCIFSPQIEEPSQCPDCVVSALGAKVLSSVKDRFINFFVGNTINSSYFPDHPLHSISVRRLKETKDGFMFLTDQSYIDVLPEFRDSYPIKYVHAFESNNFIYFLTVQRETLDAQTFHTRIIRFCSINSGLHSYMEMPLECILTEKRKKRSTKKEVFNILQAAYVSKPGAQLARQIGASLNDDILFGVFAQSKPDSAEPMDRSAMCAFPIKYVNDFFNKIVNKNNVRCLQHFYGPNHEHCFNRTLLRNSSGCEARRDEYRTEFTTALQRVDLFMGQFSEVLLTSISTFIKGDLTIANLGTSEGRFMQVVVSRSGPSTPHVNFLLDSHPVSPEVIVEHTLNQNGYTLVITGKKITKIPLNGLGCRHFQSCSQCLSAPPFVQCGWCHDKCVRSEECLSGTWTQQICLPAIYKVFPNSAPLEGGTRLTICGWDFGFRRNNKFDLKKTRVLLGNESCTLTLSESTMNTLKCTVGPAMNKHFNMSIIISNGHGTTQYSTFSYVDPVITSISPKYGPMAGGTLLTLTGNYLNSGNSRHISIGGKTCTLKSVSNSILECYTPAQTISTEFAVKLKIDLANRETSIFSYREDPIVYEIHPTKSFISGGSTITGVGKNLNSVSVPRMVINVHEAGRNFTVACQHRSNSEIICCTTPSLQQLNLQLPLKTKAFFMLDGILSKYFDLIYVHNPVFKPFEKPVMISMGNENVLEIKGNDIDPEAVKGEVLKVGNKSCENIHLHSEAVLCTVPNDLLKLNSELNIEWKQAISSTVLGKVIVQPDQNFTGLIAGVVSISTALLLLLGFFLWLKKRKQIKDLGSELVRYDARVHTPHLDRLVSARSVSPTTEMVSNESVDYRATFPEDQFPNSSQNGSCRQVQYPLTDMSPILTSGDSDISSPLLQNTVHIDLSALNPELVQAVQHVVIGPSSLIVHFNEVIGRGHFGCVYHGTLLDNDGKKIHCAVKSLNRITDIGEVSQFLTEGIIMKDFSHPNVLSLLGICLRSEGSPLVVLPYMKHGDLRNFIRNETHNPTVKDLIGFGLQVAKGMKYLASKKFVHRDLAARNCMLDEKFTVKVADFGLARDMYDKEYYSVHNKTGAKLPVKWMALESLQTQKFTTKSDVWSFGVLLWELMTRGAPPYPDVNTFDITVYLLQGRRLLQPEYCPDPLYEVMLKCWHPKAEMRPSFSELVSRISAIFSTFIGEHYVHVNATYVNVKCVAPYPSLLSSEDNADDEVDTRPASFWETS

| pIC50 (cMET) | pIC50 (RON) | SMILES |
| --- | --- | --- |
| < 5.30 | 5.30 to 6.30 | CCc1ccnc(-n2ncc(C(=O)Nc3ccc(Oc4ncnc(N)c4Cl)c(F)c3)c2C(F)(F)F)c1 [Example 55, N-[4-(6-amino-5-chloro-pyrimidin-4-yl)oxy-3-fluoro-phenyl]-1-(4-ethyl-2-pyridyl)-5-(trifluoromethyl)pyrazole-4-carboxamide] |
| < 5.30 | 6.30 to 7.30 | Nc1ncnc(Oc2ccc(NC(=O)c3cnn(-c4cccnn4)c3C(F)(F)F)cc2F)c1Cl [Example 60, N-[4-(6-amino-5-chloro-pyrimidin-4-yl)oxy-3-fluoro-phenyl]-1-pyridazin-3-yl-5-(trifluoromethyl)pyrazole-4-carboxamide] |
| < 5.30 | 6.30 to 7.30 | Cc1c(C(=O)Nc2ccc(Oc3ccnc(N)c3Cl)c(F)c2)cnn1-c1cncnc1 [Example 7, N-(4-((2-amino-3-chloropyridin-4-yl)oxy)-3-fluorophenyl)-5-methyl-1-(pyrimidin-5-yl)-1H-pyrazole-4-carboxamide] |
| < 5.30 | 5.30 to 6.30 | Nc1ncnc(Oc2ccc(NC(=O)c3cnn(-c4cc(Cl)ccn4)c3C(F)(F)F)cc2F)c1Cl [Example 52, N-[4-(6-amino-5-chloro-pyrimidin-4-yl)oxy-3-fluoro-phenyl]-1-(4-chloro-2-pyridyl)-5-(trifluoromethyl)pyrazole-4-carboxamide] |
| < 5.30 | < 5.30 | O=C(Nc1ccc(Oc2ncnc(NC3CC3)c2Cl)c(F)c1)c1cnn(-c2ncccc2Cl)c1C(F)(F)F [Example 66, N-[4-[5-chloro-6-(cyclopropylamino)pyrimidin-4-yl]oxy-3-fluoro-phenyl]-1-(3-chloro-2-pyridyl)-5-(trifluoromethyl)pyrazole-4-carboxamide] |
| 5.30 to 6.30 | > 7.30 | Nc1nccc(Oc2ccc(NC(=O)c3cnn(-c4ccccn4)c3C(F)(F)F)cc2F)c1Cl [Example 2, N-(4-((2-amino-3-chloropyridin-4-yl)oxy)-3-fluorophenyl)-1-(pyridin-2-yl)-5-(trifluoromethyl)-1H-pyrazole-4-carboxamide] |
| 5.30 to 6.30 | 6.30 to 7.30 | COc1cccnc1-n1ncc(C(=O)Nc2ccc(Oc3ccnc(N)c3Cl)c(F)c2)c1C(F)(F)F [Example 15, N-(4-((2-amino-3-chloropyridin-4-yl)oxy)-3-fluorophenyl)-1-(3-methoxypyridin-2-yl)-5-(trifluoromethyl)-1H-pyrazole-4-carboxamide] |
| < 5.30 | 5.30 to 6.30 | CCc1c(C(=O)Nc2ccc(Oc3ccnc(N)c3Cl)c(F)c2)cnn1-c1ccncc1 [Example 4, N-(4-((2-amino-3-chloropyridin-4-yl)oxy)-3-fluorophenyl)-5-ethyl-1-(pyridin-4-yl)-1H-pyrazole-4-carboxamide] |
| < 5.30 | 5.30 to 6.30 | Nc1ncnc(Oc2ccc(NC(=O)c3cnn(-c4ccncn4)c3C(F)(F)F)cc2F)c1Cl [Example 61, N-[4-(6-amino-5-chloro-pyrimidin-4-yl)oxy-3-fluoro-phenyl]-1-pyrimidin-4-yl-5-(trifluoromethyl)pyrazole-4-carboxamide] |
| < 5.30 | 6.30 to 7.30 | Nc1nccc(Oc2ccc(NC(=O)c3cnn(-c4ncc(F)cn4)c3C(F)(F)F)cc2F)c1Cl [Example 26, N-(4-((2-amino-3-chloropyridin-4-yl)oxy)-3-fluorophenyl)-1-(5-fluoropyrimidin-2-yl)-5-(trifluoromethyl)-1H-pyrazole-4-carboxamide] |
| < 5.30 | 5.30 to 6.30 | Cc1ccc(-n2ncc(C(=O)Nc3ccc(Oc4ncnc(N)c4Cl)c(F)c3)c2C(F)(F)F)nc1 [Example 48, N-[4-(6-amino-5-chloro-pyrimidin-4-yl)oxy-3-fluoro-phenyl]-1-(5-methyl-2-pyridyl)-5-(trifluoromethyl)pyrazole-4-carboxamide] |
| < 5.30 | 6.30 to 7.30 | Nc1ncnc(Oc2ccc(NC(=O)c3cnn(-c4cncnc4)c3C(F)(F)F)cc2F)c1Cl [Example 44, N-[4-(6-amino-5-chloro-pyrimidin-4-yl)oxy-3-fluoro-phenyl]-1-pyrimidin-5-yl-5-(trifluoromethyl)pyrazole-4-carboxamide] |
| < 5.30 | 6.30 to 7.30 | Nc1nccc(Oc2ccc(NC(=O)c3cnn(-c4ncccc4F)c3C(F)(F)F)cc2F)c1NC1CCCCC1 [Example 33, N-(4-((2-amino-3-(cyclohexylamino)pyridin-4-yl)oxy)-3-fluorophenyl)-1-(3-fluoropyridin-2-yl)-5-(trifluoromethyl)-1H-pyrazole-4-carboxamide] |
| 5.30 to 6.30 | 6.30 to 7.30 | Nc1nccc(Oc2ccc(NC(=O)c3cnn(-c4ncccc4C(F)(F)F)c3C(F)(F)F)cc2F)c1Cl [Example 11, N-(4-((2-amino-3-chloropyridin-4-yl)oxy)-3-fluorophenyl)-5-(trifluoromethyl)-1-(3-(trifluoromethyl)pyridin-2-yl)-1H-pyrazole-4-carboxamide] |
| < 5.30 | 6.30 to 7.30 | Nc1nccc(Oc2ccc(NC(=O)c3cnn(-c4ccc(F)cn4)c3C(F)(F)F)cc2F)c1Cl [Example 13, N-(4-((2-amino-3-chloropyridin-4-yl)oxy)-3-fluorophenyl)-1-(5-fluoropyridin-2-yl)-5-(trifluoromethyl)-1H-pyrazole-4-carboxamide] |
| < 5.30 | 6.30 to 7.30 | CCc1cccnc1-n1ncc(C(=O)Nc2ccc(Oc3ncnc(N)c3Cl)c(F)c2)c1C(F)(F)F [Example 58, N-[4-(6-amino-5-chloro-pyrimidin-4-yl)oxy-3-fluoro-phenyl]-1-(3-ethyl-2-pyridyl)-5-(trifluoromethyl)pyrazole-4-carboxamide] |
| < 5.30 | 5.30 to 6.30 | Cn1cc(-n2ncc(C(=O)Nc3ccc(Oc4ncnc(N)c4Cl)c(F)c3)c2C(F)(F)F)cn1 [Example 42, N-[4-(6-amino-5-chloro-pyrimidin-4-yl)oxy-3-fluoro-phenyl]-1-(1-methylpyrazol-4-yl)-5-(trifluoromethyl)pyrazole-4-carboxamide] |
| 5.30 to 6.30 | 6.30 to 7.30 | Cc1cccc(-n2ncc(C(=O)Nc3ccc(Oc4ccnc(N)c4Cl)c(F)c3)c2C(F)(F)F)n1 [Example 17, N-(4-((2-amino-3-chloropyridin-4-yl)oxy)-3-fluorophenyl)-1-(6-methylpyridin-2-yl)-5-(trifluoromethyl)-1H-pyrazole-4-carboxamide] |
| < 5.30 | 6.30 to 7.30 | Cc1ccc(-n2ncc(C(=O)Nc3ccc(Oc4ccnc(N)c4Cl)c(F)c3)c2C(F)(F)F)nc1 [Example 16, N-(4-((2-amino-3-chloropyridin-4-yl)oxy)-3-fluorophenyl)-1-(5-methylpyridin-2-yl)-5-(trifluoromethyl)-1H-pyrazole-4-carboxamide] |
| 5.30 to 6.30 | 6.30 to 7.30 | Nc1ncnc(Oc2ccc(NC(=O)c3cnn(-c4ncccc4C(F)(F)F)c3C(F)(F)F)cc2F)c1Cl [Example 53, N-[4-(6-amino-5-chloro-pyrimidin-4-yl)oxy-3-fluoro-phenyl]-5-(trifluoromethyl)-1-[3-(trifluoromethyl)-2-pyridyl]pyrazole-4-carboxamide] |

Reference: patent publication US20240425480A1, “NOVEL PYRIDINE DERIVATIVE COMPOUND AS RON INHIBITOR” (LG CHEM, LTD., priority 2021, published 2024)
